Data: patent publication US20250228865A1, “COMPOUNDS FOR ENHANCING READ THROUGH OF GENES CONTAINING PREMATURE TERMINATION CODONS AND METHODS FOR MAKING AND USING THE SAME” (Sanofi US Services Inc., priority 2022, published 2025)

Legend:
[1] = test system: recombinant human CFTR carrying the premature stop codon (PTC) mutation G542X; assay: CFTR-PTC mutant translation readthrough, Nanoluc tagged CFTR luminescence (G542X cell line); type: cell-based; conditions: in combination with G418, G542X cell line; for CFTR G542X ACTIVITY Fold 10 μM G-418: fold over 10 μM G-418; for EC50: 16HBE cells
Procedure, shortened: (§1)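 Readthrough is the 48 h compound-induced luminescence increase scaled to that of maximal G418 (125-250 μM). Compounds run from 50 μM final in 2-fold steps, ±10 μM G418, on 16HBE lines carrying Nanoluc-tagged CFTR G542X (extracellular loop 4 tag) or R1162X (C-terminal tag), with 3 μM VX-809 present.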

[2] = test system: recombinant human CFTR carrying the premature stop codon (PTC) mutation R1162X; assay: CFTR-PTC mutant translation readthrough, Nanoluc tagged CFTR luminescence (R1162X cell line); type: cell-based; conditions: for CFTR R1162X ACTIVITY Fold 10 μM G-418: fold over 10 μM G-418, in combination with G418; for EC50: in combination with G418, 16HBE cells, read-out: CFTR R1162X ACTIVITY EC50
Procedure, shortened: as §1

| Structure (SMILES) | EC50 [1] [µM] | EC50 [2] [µM] | CFTR G542X ACTIVITY Fold 10 μM G-418 [1] | CFTR R1162X ACTIVITY Fold 10 μM G-418 [2] |
| --- | --- | --- | --- | --- |
| NC(=O)N1CCCN(c2ncc(OCc3c(Cl)cccc3Cl)cn2)CC1 [4-[5-[(2,6-dichlorophenyl)methoxy]pyrimidin-2-yl]-1,4-diazepane-1-carboxamide] | 1 to 10 | 1 to 10 | A′ (A′ = ≥10X) | A′ (A′ = ≥10X) |
| Cc1cccc(C(F)(F)F)c1COc1ccc(N2CCOC(CO)C2)cc1 (stereo not shown) | < 1 | 1 to 10 | A′ (A′ = ≥10X) | A′ (A′ = ≥10X) |
| CCc1cccc(C(F)(F)F)c1COc1cnc(-n2cnc(CO)c2)nc1 | < 1 | < 1 | A′ (A′ = ≥10X) | A′ (A′ = ≥10X) |
| OCC1CN(c2ccc(OCc3c(Cl)cccc3Cl)cc2)CCO1 (stereo not shown) [[4-[4-[(2,6-dichlorophenyl)methoxy]phenyl]morpholin-2-yl]methanol] | 1 to 10 | 1 to 10 | A′ (A′ = ≥10X) | A′ (A′ = ≥10X) |
| O=C1Cc2cc(NCc3c(Cl)cccc3Cl)ccc2C(=O)N1 [Compound 303, 6-[(2,6-dichlorophenyl)methylamino]-4H-isoquinoline-1,3-dione] | > 10 | > 10 |  |  |
| FC1(F)CCN(c2ncc(OCc3c(Cl)cccc3C(F)(F)F)cn2)C1 | 1 to 10 | 1 to 10 | A′ (A′ = ≥10X) | A′ (A′ = ≥10X) |
| CN(CCCO)c1ncc(OCc2c(Cl)cccc2Cl)cn1 [3-[[5-[(2,6-dichlorophenyl)methoxy]pyrimidin-2-yl]-methyl-amino]propan-1-ol] | 1 to 10 | > 10 | B′ (B′ = ≥5X to <10X) | B′ (B′ = ≥5X to <10X) |
| FC(F)(F)c1cccc(Cl)c1COc1cnc(N2CCCC3(CCNC3)C2)nc1 (stereo not shown) | 1 to 10 | 1 to 10 | B′ (B′ = ≥5X to <10X) | B′ (B′ = ≥5X to <10X) |
| O=C1NC2(CCCC2)C(=O)N1c1ccc(OCc2c(Cl)cccc2C(F)(F)F)cc1 | < 1 | 1 to 10 | A′ (A′ = ≥10X) | B′ (B′ = ≥5X to <10X) |
| N#Cc1ncn(-c2ncc(OCc3c(Cl)cccc3Cl)cn2)n1 [1-[5-[(2,6-dichlorophenyl)methoxy]pyrimidin-2-yl]-1,2,4-triazole-3-carbonitrile] | 1 to 10 | 1 to 10 | A′ (A′ = ≥10X) | C′ (C′ = <5X) |
| OCc1cc(-c2ncc(OCc3c(Cl)cccc3C(F)(F)F)cn2)no1 | < 1 | 1 to 10 | A′ (A′ = ≥10X) | A′ (A′ = ≥10X) |
| O[C@@H]1CN(c2ncc(OCc3c(Cl)cccc3Cl)cn2)C[C@@H]1O [(3R,4S)-1-[5-[(2,6-dichlorophenyl)methoxy]pyrimidin-2-yl]pyrrolidine-3,4-diol] | 1 to 10 | > 10 | A′ (A′ = ≥10X) | A′ (A′ = ≥10X) |
| O=C(O)C1CN(c2ccc(OCc3c(Cl)cccc3C(F)(F)F)cn2)CCO1 (stereo not shown) | 1 to 10 | > 10 | C′ (C′ = <5X) | C′ (C′ = <5X) |
| Cc1cccc(C(F)(F)F)c1COc1cnc(-n2ccc(CO)n2)nc1 | < 1 | < 1 | A′ (A′ = ≥10X) | A′ (A′ = ≥10X) |
| CCc1cccc(C(F)(F)F)c1COc1ccc(N2C[C@@H](CO)NC2=O)nc1 | < 1 | < 1 | C′ (C′ = <5X) | C′ (C′ = <5X) |
| Cc1cccc(C(F)(F)F)c1COc1ccc(N2C[C@@H](CO)NC2=O)nc1 | < 1 | < 1 | A′ (A′ = ≥10X) | A′ (A′ = ≥10X) |
| CNC(=O)N1CCN(c2ncc(OCc3c(Cl)cccc3Cl)cn2)CC1 | < 1 | < 1 | A′ (A′ = ≥10X) | A′ (A′ = ≥10X) |

The next lines start with results.

| EC50 [1] [µM] | EC50 [2] [µM] | Structure (SMILES) | CFTR G542X ACTIVITY Fold 10 μM G-418 [1] | CFTR R1162X ACTIVITY Fold 10 μM G-418 [2] |
| --- | --- | --- | --- | --- |
| 1 to 10 | > 10 | O=C1OC(CO)CN1c1ccc(CCc2c(Cl)cccc2Cl)cc1 (stereo not shown) [3-[4-[2-(2,6-dichlorophenyl)ethyl]phenyl]-5-(hydroxymethyl)oxazolidin-2-one] | C′ (C′ = <5X) | B′ (B′ = ≥5X to <10X) |
| 1 to 10 | 1 to 10 | Cc1cccc(C(F)(F)F)c1COc1ccc(-n2cnc(C(=O)O)n2)cc1 | A′ (A′ = ≥10X) | A′ (A′ = ≥10X) |
| < 1 | 1 to 10 | CC(=O)NC[C@H]1CN(c2ncc(OCc3c(C)cccc3C(F)(F)F)cn2)CCO1 | A′ (A′ = ≥10X) | A′ (A′ = ≥10X) |
| 1 to 10 | 1 to 10 | Clc1cccc(Cl)c1COc1cnc(-n2ncc(-c3ccccn3)n2)nc1 [5-[(2,6-dichlorophenyl)methoxy]-2-[4-(2-pyridyl)triazol-2-yl]pyrimidine] | A′ (A′ = ≥10X) | A′ (A′ = ≥10X) |
| < 1 | 1 to 10 | Clc1cccc(Cl)c1COc1cnc(N2CC3(CCCOC3)C2)nc1 [2-[5-[(2,6-dichlorophenyl)methoxy]pyrimidin-2-yl]-6-oxa-2-azaspiro[3.5]nonane] | A′ (A′ = ≥10X) | A′ (A′ = ≥10X) |
| < 1 | < 1 | OCC1CN(c2ncc(OCc3c(Cl)cccc3C(F)(F)F)cn2)CCO1 (stereo not shown) | A′ (A′ = ≥10X) | A′ (A′ = ≥10X) |
| 1 to 10 | > 10 | O=C1OC(CO)CN1c1cnc(OCc2c(Cl)cccc2Cl)cn1 (stereo not shown) | B′ (B′ = ≥5X to <10X) | B′ (B′ = ≥5X to <10X) |
| > 10 | > 10 | O=C1OC(CO)CN1c1ncc(OC(F)(F)c2c(Cl)cccc2Cl)cn1 (stereo not shown) |  |  |
| 1 to 10 | 1 to 10 | COc1ccc(CN2C(=O)CN(c3ccc(OCc4c(C)cccc4C(F)(F)F)cc3)C2=O)cc1 | B′ (B′ = ≥5X to <10X) | B′ (B′ = ≥5X to <10X) |
| < 1 | 1 to 10 | OCc1cn(-c2ccc(OCc3c(Cl)cccc3Cl)cc2)cn1 [[1-[4-[(2,6-dichlorophenyl)methoxy]phenyl]imidazol-4-yl]methanol] | A′ (A′ = ≥10X) | A′ (A′ = ≥10X) |
| 1 to 10 | 1 to 10 | O=C1OCCN1c1ccc(OCc2c(Cl)cccc2Cl)cc1 [3-[4-[(2,6-dichlorophenyl)methoxy]phenyl]oxazolidin-2-one] | A′ (A′ = ≥10X) | B′ (B′ = ≥5X to <10X) |
| < 1 | < 1 | OC[C@H]1CN(c2ncc(OCc3c(Cl)cccc3C(F)(F)F)cn2)CCO1 | A′ (A′ = ≥10X) | A′ (A′ = ≥10X) |
